Laboratory results: PubChem BioAssay AID1963869 (Molecular Pharmacology Branch, DTP, NCI, 2024)
pIC50: −log10 of the molar value.

System: KRAS patient-derived spheroids with HUVEC/MSC, viability
Assay: Anticancer human tumor 323965-272-R-J2-PDC patient-derived pancreatic carcinoma cell line growth inhibition [KRAS2]
Settings: for pIC50: curve of first compound; for viability, T/C: stronger effect = lower value
Summary of the method: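 Combination screen of spheroid viability in tumor-cell co-cultures with endothelial (HUVEC) and mesenchymal stem cell stroma. Each agent was tested in half-log dilutions, topping at clinical Cmax or at 10 microM without a known Cmax.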

[1] = second compound 0.1 µM, first compound 0.000316 µM
[2] = second compound 0.1 µM, first compound 0.001 µM
[3] = second compound 0.1 µM, first compound 0.00316 µM
[4] = second compound 0.1 µM, first compound 0.01 µM
[5] = second compound 0.1 µM, first compound 0.0316 µM
[6] = second compound 0.316 µM, first compound 0.000316 µM
[7] = second compound 0.316 µM, first compound 0.001 µM
[8] = second compound 0.316 µM, first compound 0.00316 µM
[9] = second compound 0.316 µM, first compound 0.01 µM
[10] = second compound 0.316 µM, first compound 0.0316 µM
[11] = second compound 1 µM, first compound 0.000316 µM
[12] = second compound 1 µM, first compound 0.001 µM
[13] = second compound 1 µM, first compound 0.00316 µM
[14] = second compound 1 µM, first compound 0.01 µM
[15] = second compound 1 µM, first compound 0.0316 µM
[16] = second compound 3.16 µM, first compound 0.000316 µM
[17] = second compound 3.16 µM, first compound 0.001 µM
[18] = second compound 3.16 µM, first compound 0.00316 µM
[19] = second compound 3.16 µM, first compound 0.01 µM
[20] = second compound 3.16 µM, first compound 0.0316 µM
[21] = second compound 10 µM, first compound 0.000316 µM
[22] = second compound 10 µM, first compound 0.001 µM
[23] = second compound 10 µM, first compound 0.00316 µM
[24] = second compound 10 µM, first compound 0.01 µM
[25] = second compound 10 µM, first compound 0.0316 µM
[26] = second compound 0.1 µM, first compound 0.1 µM
[27] = second compound 0.316 µM, first compound 0.1 µM
[28] = second compound 1 µM, first compound 0.1 µM
[29] = second compound 3.16 µM, first compound 0.1 µM
[30] = second compound 10 µM, first compound 0.1 µM
[31] = second compound 0.1 µM, first compound 0.316 µM
[32] = second compound 0.1 µM, first compound 1 µM
[33] = second compound 0.1 µM, first compound 3.16 µM
[34] = second compound 0.1 µM, first compound 10 µM
[35] = second compound 0.316 µM, first compound 0.316 µM
[36] = second compound 0.316 µM, first compound 1 µM
[37] = second compound 0.316 µM, first compound 3.16 µM
[38] = second compound 0.316 µM, first compound 10 µM
[39] = second compound 1 µM, first compound 0.316 µM
[40] = second compound 1 µM, first compound 1 µM
[41] = second compound 1 µM, first compound 3.16 µM
[42] = second compound 1 µM, first compound 10 µM
[43] = second compound 3.16 µM, first compound 0.316 µM
[44] = second compound 3.16 µM, first compound 1 µM
[45] = second compound 3.16 µM, first compound 3.16 µM
[46] = second compound 3.16 µM, first compound 10 µM
[47] = second compound 10 µM, first compound 0.316 µM
[48] = second compound 10 µM, first compound 1 µM
[49] = second compound 10 µM, first compound 3.16 µM
[50] = second compound 10 µM, first compound 10 µM
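Also: spheroids exposed to agents for 7 days.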
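For viability, T/C in this document: 100% = DMSO vehicle control viability.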

Work on `CC(=O)Nc1cccc(-n2c(=O)n(C3CC3)c(=O)c3c(Nc4ccc(I)cc4F)n(C)c(=O)c(C)c32)c1` + CNCc1ccccc1-c1csc(C(C)Nc2nc(C)nc3cc(OC)c(OC)cc23)c1 yielded a pIC50 (second compound 0.1 µM) of 8.43, a pIC50 (second compound 0.316 µM) of 8.54 and a pIC50 (second compound 1 µM) of 8.30. The pIC50 (second compound 3.16 µM) was 8.06, the pIC50 (second compound 10 µM) was over 10.00 and the viability, T/C (second compound 0.1 µM, first compound 0.0001 µM) was 88%. It also gave a viability, T/C [1] of 83.9%, a viability, T/C [2] of 60.7% and a viability, T/C [3] of 52.4%. The viability, T/C [4] was 41.2%, the viability, T/C [5] was 27.7% and the viability, T/C (second compound 0.316 µM, first compound 0.0001 µM) was 85.3%. It also gave a viability, T/C [6] of 68.7%, a viability, T/C [7] of 62.7% and a viability, T/C [8] of 49%. For the same compound, the viability, T/C [9] was 38.7%, the viability, T/C [10] was 24.8% and the viability, T/C (second compound 1 µM, first compound 0.0001 µM) was 89.8%. The viability, T/C [11] was 81.6%, the viability, T/C [12] was 67.7% and the viability, T/C [13] was 55.5%. For the same compound, the viability, T/C [14] was 44%, the viability, T/C [15] was 21.3% and the viability, T/C (second compound 3.16 µM, first compound 0.0001 µM) was 95.6%. It also gave a viability, T/C [16] of 88.4%, a viability, T/C [17] of 77.6% and a viability, T/C [18] of 64.3%. It also gave a viability, T/C [19] of 48.4%, a viability, T/C [20] of 28.8% and a viability, T/C (second compound 10 µM, first compound 0.0001 µM) of 7.63%. For the same compound, the viability, T/C [21] was 0.79%, the viability, T/C [22] was 6.13% and the viability, T/C [23] was 0.2%. It also gave a viability, T/C [24] of 0.19% and a viability, T/C [25] of 1.14%.

Work on `CC(C)n1nc(-c2ccc3oc(N)nc3c2)c2c(N)ncnc21` + CNCc1ccccc1-c1csc(C(C)Nc2nc(C)nc3cc(OC)c(OC)cc23)c1 yielded a pIC50 (second compound 0.1 µM) of 8.67, a pIC50 (second compound 0.316 µM) of 8.70 and a pIC50 (second compound 1 µM) of 8.57. It also gave a pIC50 (second compound 3.16 µM) of 8.61, a pIC50 (second compound 10 µM) of over 9.50 and a viability, T/C [1] of 84.4%. For the same compound, the viability, T/C [2] was 58.7%, the viability, T/C [3] was 47.6% and the viability, T/C [4] was 30.1%. The viability, T/C [5] was 22.7%, the viability, T/C [26] was 17.9% and the viability, T/C [6] was 78.2%. It also gave a viability, T/C [7] of 60.8%, a viability, T/C [8] of 43.1% and a viability, T/C [9] of 28.2%. For the same compound, the viability, T/C [10] was 19.3%, the viability, T/C [27] was 16.8% and the viability, T/C [11] was 80.6%. The viability, T/C [12] was 71.5%, the viability, T/C [13] was 44.6% and the viability, T/C [14] was 29.8%. It also gave a viability, T/C [15] of 19.1%, a viability, T/C [28] of 15.6% and a viability, T/C [16] of 89%. It also gave a viability, T/C [17] of 76%, a viability, T/C [18] of 42.9% and a viability, T/C [19] of 16%. It also gave a viability, T/C [20] of 9.29%, a viability, T/C [29] of 9.2% and a viability, T/C [21] of 0.23%. It also gave a viability, T/C [22] of 0.23%, a viability, T/C [23] of 0.19% and a viability, T/C [24] of 0.16%. It also gave a viability, T/C [25] of 0.12% and a viability, T/C [30] of 0.35%.

`COc1cc(Nc2ncc3c(n2)-c2ccc(Cl)cc2C(c2c(F)cccc2OC)=NC3)ccc1C(=O)O` + CNCc1ccccc1-c1csc(C(C)Nc2nc(C)nc3cc(OC)c(OC)cc23)c1 gave a pIC50 (second compound 0.1 µM) of 6.89, a pIC50 (second compound 0.316 µM) of 7.03 and a pIC50 (second compound 1 µM) of 7.02. The pIC50 (second compound 3.16 µM) was under 5.00, the pIC50 (second compound 10 µM) was over 7.50 and the viability, T/C [5] was 80.2%. The viability, T/C [26] was 52.9%, the viability, T/C [31] was 32% and the viability, T/C [32] was 39.3%. For the same compound, the viability, T/C [33] was 55.5%, the viability, T/C [34] was 63.5% and the viability, T/C [10] was 78.8%. The viability, T/C [27] was 50.2%, the viability, T/C [35] was 33.6% and the viability, T/C [36] was 35.6%. It also gave a viability, T/C [37] of 52.3%, a viability, T/C [38] of 55.2% and a viability, T/C [15] of 85.6%. For the same compound, the viability, T/C [28] was 51%, the viability, T/C [39] was 31.9% and the viability, T/C [40] was 37.9%. It also gave a viability, T/C [41] of 51.1%, a viability, T/C [42] of 60% and a viability, T/C [20] of 88.2%. For the same compound, the viability, T/C [29] was 36.9%, the viability, T/C [43] was 17.9% and the viability, T/C [44] was 39.5%. It also gave a viability, T/C [45] of 63.3%, a viability, T/C [46] of 64.6% and a viability, T/C [25] of 0.29%. For the same compound, the viability, T/C [30] was 0.17%, the viability, T/C [47] was 0.16% and the viability, T/C [48] was 0.2%. The viability, T/C [49] was 0.35% and the viability, T/C [50] was 0.26%.

With `COc1cc2nccc(Oc3ccc(NC(=O)C4(C(=O)Nc5ccc(F)cc5)CC4)cc3)c2cc1OC` + CNCc1ccccc1-c1csc(C(C)Nc2nc(C)nc3cc(OC)c(OC)cc23)c1 the pIC50 (second compound 0.1 µM) was under 5.00, the pIC50 (second compound 0.316 µM) was under 5.00 and the pIC50 (second compound 1 µM) was under 5.00. The pIC50 (second compound 3.16 µM) was 5.37, the pIC50 (second compound 10 µM) was over 7.50 and the viability, T/C [5] was 91.7%. The viability, T/C [26] was 99.3%, the viability, T/C [31] was 110% and the viability, T/C [32] was 101%. The viability, T/C [33] was 85.2%, the viability, T/C [34] was 87.2% and the viability, T/C [10] was 87.2%. It also gave a viability, T/C [27] of 88.7%, a viability, T/C [35] of 100% and a viability, T/C [36] of 93.2%. The viability, T/C [37] was 91.4%, the viability, T/C [38] was 82% and the viability, T/C [15] was 105%. It also gave a viability, T/C [28] of 99%, a viability, T/C [39] of 102% and a viability, T/C [40] of 101%. The viability, T/C [41] was 92.6%, the viability, T/C [42] was 72.7% and the viability, T/C [20] was 95.4%. For the same compound, the viability, T/C [29] was 91.8%, the viability, T/C [43] was 92.2% and the viability, T/C [44] was 91.6%. The viability, T/C [45] was 66.5%, the viability, T/C [46] was 1.54% and the viability, T/C [25] was 0.33%. For the same compound, the viability, T/C [30] was 0.3%, the viability, T/C [47] was 0.27% and the viability, T/C [48] was 0.75%. It also gave a viability, T/C [49] of 0.33% and a viability, T/C [50] of 0.34%.
